The text below walks through data of ChEMBL document CHEMBL1201862, “PubChem BioAssay data set” (2004).

Test systems include SNB-19; SK-MEL-28; A549; SF-295; UO-31; EKVX; NCI-H460; U-251; SN12C; IGROV-1; SW-620; K562; HL-60; MOLT-4; KM12; OVCAR-4; NCI-H23; UACC-257; SF-539; SNB-75.
What all share (experiment): NCI tumour cell line growth inhibition, 48 h

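Following 48 hours of exposure in 96-well plates, responses at five concentrations were used to interpolate endpoints linearly. GI50 marks 50% less growth.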 Activity calls are given as the source filed them. Cut-off read from the data, not from the text of the source: active = GI50 up to about 1.1 µM and inactive = higher. Where only a bound is given, the exact number is not on record here.

Regarding `CC1=NC=C(O)c2ccccc2O1`, the GI50 is > 100 µM (inactive) in the test with SNB-19; > 100 µM (inactive) in the test on SK-MEL-28; > 100 µM (inactive) in the test with A549; 45 µM (inactive) with SF-295; 85.5 µM (inactive) in the test on UO-31; > 100 µM (inactive) in the test on EKVX. Besides, the GI50 in the test with NCI-H460, with U-251, in the test with SN12C, with IGROV-1, with SW-620 and with K562 was > 100 µM (inactive) in each case. Moreover, the GI50 with HL-60, with MOLT-4, in the test with KM12, with OVCAR-4, with NCI-H23 and with UACC-257 was > 100 µM (inactive) each time. Further, the GI50 in the test with SF-539 was > 100 µM (inactive).

Turning to `CSc1cc(-c2cc3ccccc3o2)oc(=O)c1C#N`, the GI50 in the test on SNB-19 is 68.9 µM (inactive); in the test on SK-MEL-28 it was > 100 µM (inactive); with A549, > 100 µM (inactive); with SF-295, 40.9 µM (inactive); in the test with UO-31 it was 37.5 µM (inactive); in the test on EKVX, > 100 µM (inactive). The GI50 is > 100 µM (inactive) in the test with NCI-H460; > 100 µM (inactive) in the test on U-251; > 100 µM (inactive) with SN12C; 7.4 µM (inactive) in the test with IGROV-1; > 100 µM (inactive) with SW-620; > 100 µM (inactive) with K562. Also, the GI50 with HL-60 is 18.9 µM (inactive); in the test on MOLT-4 it was > 100 µM (inactive); with KM12, > 100 µM (inactive); in the test with OVCAR-4, > 100 µM (inactive); with NCI-H23, > 100 µM (inactive); in the test with UACC-257, > 100 µM (inactive). For the same compound, the GI50 is 16.3 µM (inactive) in the test with SNB-75 and > 100 µM (inactive) in the test on SF-539.

Consider `COc1cc2c(cc1OC)-c1cc3ccccc3c[n+]1CC2`, for which the GI50 was > 100 µM (inactive) with SNB-19; > 100 µM (inactive) in the test with SK-MEL-28; > 100 µM (inactive) with A549; 74.8 µM (inactive) in the test on SF-295; > 100 µM (inactive) in the test with UO-31; > 100 µM (inactive) in the test with EKVX. In addition, the GI50 was > 100 µM (inactive) with NCI-H460; 33.6 µM (inactive) in the test with U-251; 39.6 µM (inactive) in the test with SN12C; > 100 µM (inactive) in the test on IGROV-1; > 100 µM (inactive) with SW-620; 48.4 µM (inactive) in the test on K562. Besides, the GI50 was > 100 µM (inactive) with MOLT-4; 65.3 µM (inactive) in the test on KM12; > 100 µM (inactive) in the test with OVCAR-4; > 100 µM (inactive) in the test on NCI-H23; 89.5 µM (inactive) with UACC-257; > 100 µM (inactive) in the test with SNB-75. The GI50 in the test on SF-539 is > 100 µM (inactive).

Turning to `O=C1Sc2ccccc2/C1=N/Nc1ccccc1[N+](=O)[O-]`, the GI50 in the test on SNB-19, with SK-MEL-28, with A549, in the test on SF-295, in the test on UO-31 and in the test with EKVX was > 100 µM (inactive) in each case. In addition, the GI50 in the test with NCI-H460, in the test with U-251, in the test with IGROV-1, in the test on SW-620, in the test with K562 and in the test on HL-60 was > 100 µM (inactive) in each case. Also, the GI50 is > 100 µM (inactive) in the test with MOLT-4; > 100 µM (inactive) in the test on KM12; 36.1 µM (inactive) in the test on OVCAR-4; > 100 µM (inactive) in the test with NCI-H23; > 100 µM (inactive) in the test on UACC-257; 0.281 µM (active) in the test on SNB-75. The GI50 with SF-539 is 69.5 µM (inactive).

As to `Oc1ccc2ccccc2c1/N=N/c1cccc2ccccc12`, the GI50 in the test with SNB-19 was 47.6 µM (inactive); in the test on A549, > 100 µM (inactive); with SF-295, > 100 µM (inactive); in the test on UO-31 it was > 100 µM (inactive); with EKVX, 84.9 µM (inactive); in the test on NCI-H460 it was > 100 µM (inactive). Moreover, the GI50 with U-251 was 50.6 µM (inactive); in the test on SN12C, > 100 µM (inactive); with IGROV-1 it was 49.9 µM (inactive); in the test on SW-620, > 100 µM (inactive); in the test on K562, > 100 µM (inactive); in the test with HL-60 it was > 100 µM (inactive). Also, the GI50 in the test with MOLT-4 is > 100 µM (inactive); in the test with KM12, > 100 µM (inactive); in the test with OVCAR-4, > 100 µM (inactive); in the test on NCI-H23, > 100 µM (inactive); in the test with UACC-257, > 100 µM (inactive); in the test with SNB-75, 23.6 µM (inactive). Besides, in the test on SF-539, the GI50 is 24.3 µM (inactive).

As to `N#Cc1ccc(-c2nc(C#N)c(N)o2)cc1`, the GI50 with SNB-19, in the test on SK-MEL-28, in the test with A549, with SF-295, with UO-31 and with EKVX was > 10 µM (inactive) in each case. The GI50 with NCI-H460, in the test with SN12C, with IGROV-1, in the test with SW-620, with K562 and with HL-60 was > 10 µM (inactive) in each case. The GI50 with MOLT-4, in the test with KM12, with OVCAR-4, with NCI-H23, with UACC-257 and in the test on SNB-75 was > 10 µM (inactive) each time. For the same compound, the GI50 in the test with SF-539 is > 10 µM (inactive).

Regarding `Nc1ccc(Sc2nnc(N)s2)cc1`, the GI50 in the test with SNB-19, in the test on SK-MEL-28, with A549, in the test on SF-295, in the test on UO-31 and in the test with EKVX was > 100 µM (inactive) each time. Moreover, the GI50 with NCI-H460, with U-251, in the test with SN12C, in the test with IGROV-1, in the test on SW-620 and with K562 was > 100 µM (inactive) each time. The GI50 in the test on HL-60, in the test with MOLT-4, with KM12, in the test on OVCAR-4, in the test on UACC-257 and in the test on SNB-75 was > 100 µM (inactive) in each case. Besides, the GI50 in the test with SF-539 is > 100 µM (inactive).

For `CCSc1nc(N/N=C/c2cccs2)c2cnn(CO)c2n1`, the GI50 was 10.8 µM (inactive) in the test with SNB-19; 14.9 µM (inactive) with SK-MEL-28; 7 µM (inactive) with A549; 8.13 µM (inactive) in the test on SF-295; 2.81 µM (inactive) with UO-31; 9.08 µM (inactive) in the test with EKVX. Moreover, the GI50 is 5.11 µM (inactive) in the test with NCI-H460; 6.85 µM (inactive) in the test on U-251; 6.44 µM (inactive) with SN12C; 2.61 µM (inactive) in the test with IGROV-1; 4.42 µM (inactive) with SW-620; 4.13 µM (inactive) with K562. In addition, the GI50 was 5.15 µM (inactive) with HL-60; 0.408 µM (active) in the test on KM12; 23.6 µM (inactive) in the test with OVCAR-4; 7.05 µM (inactive) with NCI-H23; 11.6 µM (inactive) in the test on UACC-257; 14.2 µM (inactive) in the test on SNB-75. For the same compound, the GI50 in the test on SF-539 was 10.5 µM (inactive).
